Reference: PMC11123979, “Discovery of Nine Dipeptidyl Peptidase-4 Inhibitors from Coptis chinensis Using Virtual Screening, Bioactivity Evaluation, and Binding Studies” (Molecules, 2024)
Like-named read-outs stand apart in the source and are kept apart here.

How the values were obtained:
[1] = biological target: T1, DPP-4 (Homo sapiens, UniProt P27487); test: DPP-4 inhibition assay (commercial DPP-4 inhibitor screening assay kit, fluorescence); assay type: biochemical; conditions: for IC50: dose-response curves, read-out: IC50 value of the DPP-4 inhibitory activity; for inhibition at 30 µM: read-out: DPP-4 inhibition (primary screening)
T1 construct: purchased Cayman Chemical Company 700210
Method: The DPP-4 inhibitory activity of 39 potential compounds obtained via virtual screening was tested using a commercial DPP-4 inhibitor screening assay kit (Item No. 700210, Cayman Chemical Company, Ann Arbor, MI, USA), and the kit’s instructions were followed exactly. The fluorescence intensity was measured at an excitation/emission wavelength of 360/460 nm using an EnVision Multilabel Reader (2104 PerkinElmer, Waltham, MA, USA). The possibility of false positives was eliminated by assessing the autofluorescence of each test compound. […] These compounds were prepared at a concentration of 30 μM in deionized water that contained 0.5% DMSO. […] The half-maximal inhibitory concentration (IC50) was determined using GraphPad Prism 9 software.

[2] = biological target: T1, DPP-4; test: SPR-based binding assay (BIAcore T200, DPP-4 immobilized on CM5 chip); conditions: 'Affinity' module, 1:1, 25 °C, Tris-HCl pH 8.0
Method: The binding affinity between DPP-4 and six alkaloids in Coptis chinensis was evaluated using the BIAcore T200 system (GE Healthcare, Uppsala, Sweden). All SPR-related materials were obtained from GE Healthcare, and DPP-4 (D3446) was purchased from Sigma-Aldrich Chemical Co. (St. Louis, MO, USA). The DPP-4 protein, dissolved in PBS at a concentration of 40 ng/μL, was immobilized onto the surface of a CM5 sensor chip using a standard amine-coupling procedure. The test compounds were prepared at varying concentrations in a solution of Tris-Hcl (pH 8.0) and injected over the surface of the chip at a rate of 30 μL·min^−1 and a temperature of 25 °C. A reference flow cell without the immobilization of DPP-4 served as a control for non-specific binding. […] The chip could be regenerated and reused multiple times after it was treated with glycine–HCl (10 mM; pH 2.0). The test compounds were evaluated using the single-cycle kinetics mode across a two-fold concentration series (1.17–100 µM). The equilibrium constant (KD) was calculated based on the 1:1 reaction ratio between the molecule and protein, using the ‘affinity” module in the Biacore T200 software.

T1 sequence (P27487 whole entry): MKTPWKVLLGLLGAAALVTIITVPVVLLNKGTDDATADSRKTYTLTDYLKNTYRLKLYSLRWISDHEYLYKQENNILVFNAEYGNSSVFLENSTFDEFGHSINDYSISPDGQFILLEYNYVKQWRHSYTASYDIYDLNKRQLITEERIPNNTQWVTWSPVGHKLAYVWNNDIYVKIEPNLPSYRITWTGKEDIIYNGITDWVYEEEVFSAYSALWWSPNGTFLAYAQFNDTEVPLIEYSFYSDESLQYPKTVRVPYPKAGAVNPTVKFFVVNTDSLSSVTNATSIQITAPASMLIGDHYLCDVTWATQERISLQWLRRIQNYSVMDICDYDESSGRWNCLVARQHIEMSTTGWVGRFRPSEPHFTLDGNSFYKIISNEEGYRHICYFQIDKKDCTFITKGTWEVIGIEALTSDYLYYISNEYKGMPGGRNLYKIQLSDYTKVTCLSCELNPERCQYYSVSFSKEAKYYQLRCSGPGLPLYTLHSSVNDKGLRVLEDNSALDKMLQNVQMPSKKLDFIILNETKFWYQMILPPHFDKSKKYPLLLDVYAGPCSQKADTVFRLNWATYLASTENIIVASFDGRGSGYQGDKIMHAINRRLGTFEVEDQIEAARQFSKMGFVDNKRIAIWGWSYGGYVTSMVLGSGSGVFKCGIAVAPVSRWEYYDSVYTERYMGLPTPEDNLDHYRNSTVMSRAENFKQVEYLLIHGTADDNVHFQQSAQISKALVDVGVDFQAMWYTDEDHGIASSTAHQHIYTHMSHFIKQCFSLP

IC50 [1] | inhibition at 30 µM ([1]; final concentration of 30 μM) | Compound | Kd [2] | inhibition at 30 µM [1]
53.7 µM | > 40% | COc1ccc2cc3[n+](cc2c1OC)CCc1cc2c(cc1-3)OCO2 [berberine] | 30 µM | 
3.63 µM | > 40% | COc1ccc2cc3[n+](cc2c1OC)CCc1cc(O)c(O)cc1-3 [demethyleneberberine] |  | 
27.4 µM | > 40% | COc1ccc2cc3[n+](cc2c1O)CCc1cc2c(cc1-3)OCO2 [berberrubine] | 18.8 µM | 
13.4 µM | > 40% | COc1cc2c(cc1O)CC[n+]1cc3c4c(ccc3cc1-2)OCO4 [groenlandicine] | 15 µM | 
49.8 µM | > 40% | COc1cc2c(cc1OC)-c1cc3ccc(OC)c(OC)c3c[n+]1CC2 [palmatine] |  | 
35.6 µM | > 40% | COc1cc2c(cc1OC)-c1cc3ccc4c(c3c[n+]1CC2)OCO4 [epiberberine] |  | 

Compound | IC50 [1] | inhibition at 30 µM ([1]; final concentration of 30 μM) | Kd [2] | inhibition at 30 µM [1]
c1c2c(cc3c1OCO3)-c1cc3ccc4c(c3c[n+]1CC2)OCO4 [coptisine] | 8.91 µM | > 40% | 13.8 µM | 
COc1cc2c(cc1O)CC[n+]1cc3c(OC)c(OC)ccc3cc1-2 [jatrorrhizine] | 26.9 µM |  | 12.1 µM | > 40%
COc1cc2c(cc1O)-c1cc3ccc(OC)c(OC)c3c[n+]1CC2 [columbamine] | 3.44 µM | > 40% | 8.11 µM | 
